# Assay results from publication PMC6062912, “The Evolutionary Conserved γ-Core Motif Influences the Anti-Candida Activity of the Penicillium chrysogenum Antifungal Protein PAF” (Frontiers in Microbiology, 2018).
# Like-named read-outs stand apart in the source and are kept apart here. Residues, ends and D or L forms follow the SMILES beside them.
# How the values were obtained:
# Assay type in all cases: cell-based, Candida albicans
# C. albicans [1] = test: Cell size reduction (FSC) by flow cytometry; details: 2× MIC, mean ± SD
# Experimental: (§1) To analyze changes in cell size and to assess kinetics of cell death of C. albicans upon antifungal treatment flow cytometry was applied. For both experiments, 10^4 cells mL^-1 was incubated in 0.05× PDB with the desired AMP concentration for different time points. The incubation was performed in 1.5 mL reaction tubes at 30°C under continuous shaking at 800 rpm in a Thermomixer Comfort (Eppendorf). After incubation, the cells were centrifuged at 4°C with 3,000 ×g for 3 min. For cell size determination, the supernatant was removed and the cells were resuspended and fixed in PBS containing 3.7% (v/v) formaldehyde before changes in cell size were measured by plotting SSC against FSC. C. albicans that were incubated at 95°C for 120 min served as controls. Microscopic control-images were taken with a fluorescence microscope (Axioplan, Zeiss), equipped with a camera (Axiocam 503 mono, Zeiss) and excitation/emission filters (365/420 nm for blue fluorescence and 546/590 or 565/620 nm for red fluorescence, Zeiss). Image acquisition was performed with ZEN 2 microscope software (Zeiss, blue edition) and the cell area was measured with ImageJ 1.52d software ([Schindelin et al., 2012]).
# Cell shrinkage of C. albicans is a sign for cell death when exposed to AMPs ([Lee et al., 2017]). We therefore analyzed the changes in size of AMP-treated C. albicans cells by recording the FSC with flow cytometry. To this end, C. albicans cells were analyzed after 10 and 30 min of exposure to 1× MIC and 2× MIC of AMPs (Figure 5). Heat-killed and untreated C. albicans cells served as positive and negative controls, respectively (Supplementary Figure S8). […] Pγ^var and Pγ^opt caused a very prominent decrease in the FSC value compared to the untreated cell population when applied at 2× MIC. Pγ^var and Pγ^opt reduced the average cell size after a 10-min treatment by 28 ± 13 (P = 0.022) and 18 ± 10% (P = 0.041), respectively, and after 30 min the cell size was reduced by 48 ± 8 (P < 0.001) and 37 ± 12% (P = 0.007), respectively.
# C. albicans [2] = details: 10 min exposure, mean ± SD, untreated control 1.8 ± 1.2%
# Experimental: as §1
# For dead-cell staining, prior to fixation, the cells were incubated in the dark for 30 min at 4°C with 100 μL PBS containing 0.1 μL LIVE/DEAD^TM Fixable Far Red Dead Cell Stain (Thermo Fisher Scientific). The cells were then washed once in PBS and fixed in PBS containing 3.7% formaldehyde. Ethanol-inactivated dead C. albicans served as a positive staining control. The samples were then analyzed by FACS (FACSVerse Flow Cytometer, BD Biosciences), equipped with BD FACSuite software (v1.0.6.5230, BD Biosciences). Dead cells were detected at Excitation/Emission wavelength of 650/665 nm. Stained, live, and dead Candida cells were used as controls to discriminate populations and to set the gates.
# To elucidate the AMPs candidacidal activities at an early stage and to compare their time and dose-dependent cell killing in more detail, fluorescence activated cell sorting (FACS) analysis with dead-cell staining was applied. To this end, C. albicans was exposed to 1× and 2× MIC of the respective AMPs for 10 min, stained with the dead-cell marker, and fixed with formaldehyde. With FACS analyses, 1.8 ± 1.2% dead cells were detected in the untreated control (Figure 3).
# C. albicans biofilms = test: Anti-biofilm activity, FDA fluorescence; details: AMP 0–40 μM for 24 h at 30°C; for concentration inhibiting cell metabolism in biofilm (FDA fluorescence): 24-h-old biofilms; for concentration with anti-biofilm (inhibitory) activity, extinction of FDA fluorescence: 1 h old (young) biofilms
# Experimental: The antifungal activity against C. albicans biofilms was determined in 96-well microtiter plates (Nunclon Delta, Thermo Fisher Scientific). Cells (10^5) in 100 μL 0.05× PDB were distributed per well and plates were incubated at 37°C for up to 24 h to allow biofilm formation. After cell adherence, the microtiter plates were washed once with 0.05× PDB and the test substances were added in increasing concentrations in 100 μL 0.05× PDB per well. H2O2 served as a control for cell killing. The plates were further incubated at 30°C for 24 h. The wells were washed once with 0.05× PDB and 100 μL of FDA solution (40 μg mL^-1 in 0.05× PDB) was added to the wells. Wells containing only FDA solution (40 μg mL^-1 in 0.05× PDB) were used as blank background control. The plates were incubated for 1 h at 37°C in the dark before the fluorescence signal intensity was measured in a multi-mode microplate reader (FLUOstar Omega, BMG Labtech) with excitation and emission wavelengths of 485 and 520 nm. All experiments were prepared at least in duplicates and repeated at least twice.
# Next, we analyzed the potential of the AMPs to inhibit C. albicans biofilm formation. Low susceptibility of biofilms to antifungal agents is often a limiting factor in anti-Candida treatment. To this end, C. albicans cells were distributed in 96-well microtiter plates, allowed to settle down, and to develop biofilms for 1 and 24 h. Then, planktonic cells were washed off and AMPs were added to the biofilms for another 24 h in a concentration range of 0–40 μM. The biofilms were then quantified by adding FDA to the wells. Metabolically active cells convert non-fluorescent FDA into highly fluorescent fluorescein by intracellular enzymatic activity ([Peeters et al., 2008]). The resulting fluorescence signal intensity from AMP-treated biofilms was measured and compared to untreated conditions. […] Twenty-four-hour-old biofilms, however, were resistant against PAF, PAF^var, and PAF^opt in the investigated concentration range (data not shown).
Structure (SMILES),cell size reduction (change in FSC vs untreated cells) (C. albicans [1]; 10 min) [%],cell size reduction (change in FSC vs untreated cells) (C. albicans [1]; 30 min) [%],"dead cells (cells killed), FACS dead-cell staining (C. albicans [2]; 1× MIC) [%]","dead cells (cells killed), FACS dead-cell staining (C. albicans [2]; 2× MIC) [%]",concentration inhibiting cell metabolism in biofilm (FDA fluorescence) (C. albicans biofilms) [µM],"concentration with anti-biofilm (inhibitory) activity, extinction of FDA fluorescence (C. albicans biofilms) [µM]"
CC(=O)N[C@@H](CCCCN)C(=O)N[C@@H](Cc1ccc(O)cc1)C(=O)N[C@H](C(=O)NCC(=O)N[C@@H](CCCCN)C(=O)N[C@@H](CS)C(=O)N[C@@H](CCCCN)C(=O)N[C@H](C(=O)N[C@@H](CCCCN)C(=O)N[C@@H](CCCCN)C(=O)N[C@@H](CC(N)=O)C(=O)N[C@@H](CCCCN)C(=O)N[C@@H](CS)C(=O)N[C@@H](CCCCN)C(N)=O)[C@@H](C)O)[C@@H](C)O [Pγ^opt] (Ac-KYTGKCKTKKNKCK-NH2),18 ± 10,37 ± 12,11.7 ± 0.3,27.4 ± 1.3,10,10
CC(=O)N[C@@H](CCCCN)C(=O)N[C@@H](Cc1ccc(O)cc1)C(=O)N[C@H](C(=O)NCC(=O)N[C@@H](CCCCN)C(=O)N[C@@H](CS)C(=O)N[C@@H](Cc1ccc(O)cc1)C(=O)N[C@@H](CCCCN)C(=O)N[C@@H](CCCCN)C(=O)N[C@@H](CCCCN)C(=O)N[C@@H](CC(N)=O)C(=O)N[C@@H](CCC(=O)O)C(=O)N[C@@H](CS)C(=O)N[C@@H](CCCCN)C(N)=O)[C@@H](C)O [Pγ^var] (Ac-KYTGKCYKKKNECK-NH2),28 ± 13,48 ± 8,13.2 ± 3.2,27.1 ± 5.6,20,10
